Results from the supplement of paper PMC8671470.
± gives the standard deviation of the averaged measurements.

Legend:
Details in all cases: 72 h
KG-1 = assay: cell viability (% survival relative to DMSO control, bortezomib = 0%); higher = less cytotoxic
Summary of the method: (§1)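 Fifteen myeloid leukaemia cell lines (10 AML, 5 CML) were seeded at a density titrated to the linear growth range into 384-well plates pre-printed with compounds at 1, 10, 100, 1000 or 10000 nM in duplicate. Plates were incubated for 72 h at 37 °C with 5% CO2. Viability was then read by CellTiter-Glo luminescence. Each value is percent survival averaged over the duplicates, with vehicle set to 100% and a 10 µM positive control to 0%.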

K-562 = assay: as above
Summary of the method: as §1

SHI-1 = assay: as above
Summary of the method: as §1

HEL = assay: as above
Summary of the method: as §1

ML-2 = assay: as above
Summary of the method: as §1

MOLM-13 = assay: as above
Summary of the method: as §1

THP-1 = assay: as above
Summary of the method: as §1

KU-812 = assay: as above
Summary of the method: as §1

Mono-Mac-6 = assay: as above
Summary of the method: as §1

BV-173 = assay: as above
Summary of the method: as §1

HL-60 [1] = assay: as above
Summary of the method: as §1

KCL-22 [2] = assay: as above
Summary of the method: as §1

LAMA-84 = assay: as above
Summary of the method: as §1

MV4-11 = assay: as above
Summary of the method: as §1

NOMO-1 = assay: as above
Summary of the method: as §1

KCL-22 [3] = test system: KCL-22
Summary of the method: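 Fifteen myeloid leukaemia lines were incubated for 72 h at 37 °C with 5% CO2 across five tenfold doses from 1 to 10,000 nM, in duplicate. ATP luminescence was normalised to vehicle and to a positive control at 10 µM and fitted with a four-parameter log-logistic model. The IC50 came from these dose–response fits.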

HL-60 [4] = assay: cell viability (% survival relative to DMSO control); higher = less cytotoxic
Summary of the method: (§2)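 Area under the curve, where listed, was derived from four-parameter log-logistic fits with drc and PharmacoGx. These fits used CellTiter-Glo viability from HL-60 cells in RPMI 1640 with 10% FBS, normalised to DMSO wells and wells holding 10 μM proteasome inhibitor. The full library was rescreened on 384-well plates in duplicate at five tenfold concentrations, 1–10,000 nM, with DMSO or 100 nM of one of three metabolic inhibitors, for 72 h at 37 °C, 5% CO2.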

HL-60 [5] = assay: area under dose-response curve (viability, 1 nM-10 uM) (fraction (0-1)); higher = more sensitive
Summary of the method: as §2

NCc1ccc(-c2cccnc2)s1 [(5-Pyrid-3-YLTHIEN-2-YL)METHYLAMINE]
Details	area under dose-response curve, co-treatment: AZD3965 100 nM	area under dose-response curve, co-treatment: DMSO vehicle	area under dose-response curve, co-treatment: GSK2194069 100 nM	area under dose-response curve, co-treatment: pictilisib 100 nM	cell viability, 1 nM [%]	cell viability, 10 nM [%]	cell viability, 100 nM [%]	cell viability, 1000 nM [%]	cell viability, 10000 nM [%]
BV-173	–	–	–	–	113	102	98.7	104	87.2
HEL	–	–	–	–	105	103	104	109	104
HL-60 [1]	–	–	–	–	99.3	107	103	115	121
HL-60 [5]	< 0.0301	< 0.0301	< 0.0301	< 0.0301	–	–	–	–	–
K-562	–	–	–	–	92.7	122	96.1	90.4	94
KCL-22 [2]	–	–	–	–	122	114	91.6	84.7	88.8
KG-1	–	–	–	–	109	108	99.8	108	87.6
KU-812	–	–	–	–	104	107	97.7	104	85.1
LAMA-84	–	–	–	–	108	106	102	93	91.2
ML-2	–	–	–	–	104	108	97.6	113	96.5
MOLM-13	–	–	–	–	100	102	93.7	97.8	91.8
MV4-11	–	–	–	–	91.6	123	104	110	89.6
Mono-Mac-6	–	–	–	–	108	103	95.7	104	89
NOMO-1	–	–	–	–	109	105	97.5	109	87.9
SHI-1	–	–	–	–	107	115	105	97	100
THP-1	–	–	–	–	109	111	99.6	104	93

Details	IC50 (cell viability) [nM]
KCL-22 [3]	> 10000

cell viability [%], HL-60 [4]
Details	0.001 µM	0.01 µM	0.1 µM	1 µM	10 µM
co-treatment: AZD3965 100 nM	103 ± 3.5	78 ± 37	114 ± 1.4	97 ± 1	101 ± 1.1
co-treatment: DMSO vehicle	103 ± 1.9	101 ± 5.8	109 ± 2.6	92.7 ± 13	98.43 ± 0.59
co-treatment: GSK2194069 100 nM	105 ± 2.2	94.3 ± 13	107.2 ± 0.96	95.1 ± 2.1	96.7 ± 4.5
co-treatment: pictilisib 100 nM	104 ± 11	91.2 ± 27	113 ± 2.4	92.2 ± 5.2	96.9 ± 2.8

Nc1ccn([C@@H]2O[C@H](CO)[C@@H](O)C2(F)F)c(=O)n1 [Gemcitabine]
Details	area under dose-response curve, co-treatment: AZD3965 100 nM	area under dose-response curve, co-treatment: DMSO vehicle	area under dose-response curve, co-treatment: GSK2194069 100 nM	area under dose-response curve, co-treatment: pictilisib 100 nM	cell viability, 1 nM [%]	cell viability, 10 nM [%]	cell viability, 100 nM [%]	cell viability, 1000 nM [%]	cell viability, 10000 nM [%]
BV-173	–	–	–	–	83.3	-0.488	0.0466	0.053	-0.136
HEL	–	–	–	–	105	1.42	-0.289	0.472	0.991
HL-60 [1]	–	–	–	–	104	38.9	-0.42	0.321	0.435
HL-60 [5]	0.648	0.631	0.634	0.663	–	–	–	–	–
K-562	–	–	–	–	92.6	62.1	37.3	29.6	28.7
KCL-22 [2]	–	–	–	–	104	37.7	9.55	8.82	9.48
KG-1	–	–	–	–	105	33.4	9.8	11.5	9.39
KU-812	–	–	–	–	90.8	17.4	7.87	6.94	6.04
LAMA-84	–	–	–	–	95.6	45.7	5.22	4.64	4.9
ML-2	–	–	–	–	96.3	3.45	1.35	2.33	2.18
MOLM-13	–	–	–	–	96.6	2.43	0.0219	0.303	0.34
MV4-11	–	–	–	–	78.5	-0.0353	-0.464	0.602	0.268
Mono-Mac-6	–	–	–	–	95.1	2.34	1.01	0.852	0.24
NOMO-1	–	–	–	–	103	24.5	3.18	1.37	0.238
SHI-1	–	–	–	–	101	25.9	34.1	0.0306	-0.276
THP-1	–	–	–	–	110	44.4	30.5	23.5	20.4

Details	IC50 (cell viability) [nM]
KCL-22 [3]	6.87

cell viability [%], HL-60 [4]
Details	0.001 µM	0.01 µM	0.1 µM	1 µM	10 µM
co-treatment: AZD3965 100 nM	101 ± 4.7	82.7 ± 21	5.92 ± 1.7	4.29 ± 1.1	3.15 ± 0.62
co-treatment: DMSO vehicle	99.76 ± 0.9	85.6 ± 14	7.57 ± 0.71	6.18 ± 1.1	3.121 ± 0.023
co-treatment: GSK2194069 100 nM	104 ± 3.8	84.92 ± 0.64	7.69 ± 2.4	5.54 ± 1.7	3.32 ± 1.2
co-treatment: pictilisib 100 nM	97.8 ± 12	74.5 ± 11	6.77 ± 1.7	5.09 ± 0.17	2.52 ± 0.74
